Test results as given in PMC4161151 (Journal of Medicinal Chemistry, 2014).
In brackets after ≈: the same amount, converted by molar mass. Several values for one entry are separate records, joined by “and”; a condition that tells them apart may be missing. Identical values can stand only once. Like-named read-outs stand apart in the source and are kept apart here.

What was measured:
MDCK-MDR1 cells = test: MDCK-MDR1 permeability; conditions: percent transported from the optical to basal side
hERG channel = hERG channel (Homo sapiens, UniProt Q12809); test: hERG [3H]astemizole radioligand displacement assay
Chain of hERG channel (Q12809 whole entry): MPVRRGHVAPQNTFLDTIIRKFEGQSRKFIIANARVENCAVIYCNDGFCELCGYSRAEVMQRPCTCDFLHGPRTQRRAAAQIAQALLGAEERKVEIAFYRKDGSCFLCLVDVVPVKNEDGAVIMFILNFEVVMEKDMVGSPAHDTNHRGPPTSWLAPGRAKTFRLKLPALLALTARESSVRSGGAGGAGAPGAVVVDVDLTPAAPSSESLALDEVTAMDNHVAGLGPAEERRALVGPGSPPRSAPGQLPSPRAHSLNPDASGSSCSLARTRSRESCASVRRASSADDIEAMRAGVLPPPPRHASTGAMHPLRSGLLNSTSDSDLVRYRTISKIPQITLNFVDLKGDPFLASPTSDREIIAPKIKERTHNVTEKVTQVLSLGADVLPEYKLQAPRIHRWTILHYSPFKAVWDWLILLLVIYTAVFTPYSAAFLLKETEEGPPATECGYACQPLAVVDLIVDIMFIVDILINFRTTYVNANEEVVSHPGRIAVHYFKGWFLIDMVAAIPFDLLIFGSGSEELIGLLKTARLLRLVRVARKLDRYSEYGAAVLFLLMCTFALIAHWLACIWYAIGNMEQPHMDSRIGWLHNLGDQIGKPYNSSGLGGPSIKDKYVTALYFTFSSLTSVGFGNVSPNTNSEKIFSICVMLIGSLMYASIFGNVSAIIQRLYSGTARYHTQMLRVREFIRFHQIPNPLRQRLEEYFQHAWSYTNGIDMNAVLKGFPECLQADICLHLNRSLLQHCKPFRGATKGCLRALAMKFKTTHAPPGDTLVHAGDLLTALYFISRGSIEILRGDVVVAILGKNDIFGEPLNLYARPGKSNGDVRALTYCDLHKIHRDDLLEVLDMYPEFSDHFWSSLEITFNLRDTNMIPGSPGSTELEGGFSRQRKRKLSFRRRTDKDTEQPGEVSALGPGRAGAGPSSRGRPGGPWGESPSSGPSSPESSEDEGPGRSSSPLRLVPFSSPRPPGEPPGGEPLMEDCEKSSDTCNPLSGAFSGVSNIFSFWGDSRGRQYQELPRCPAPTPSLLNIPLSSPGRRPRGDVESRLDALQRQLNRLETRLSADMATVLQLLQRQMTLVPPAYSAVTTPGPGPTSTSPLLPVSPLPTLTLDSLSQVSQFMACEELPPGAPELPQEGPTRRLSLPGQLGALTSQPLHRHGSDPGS

μ opioid receptor [1] = target: T1, μ opioid receptor (Homo sapiens, UniProt P35372); test: biochemical
T1 sequence (P35372 whole entry): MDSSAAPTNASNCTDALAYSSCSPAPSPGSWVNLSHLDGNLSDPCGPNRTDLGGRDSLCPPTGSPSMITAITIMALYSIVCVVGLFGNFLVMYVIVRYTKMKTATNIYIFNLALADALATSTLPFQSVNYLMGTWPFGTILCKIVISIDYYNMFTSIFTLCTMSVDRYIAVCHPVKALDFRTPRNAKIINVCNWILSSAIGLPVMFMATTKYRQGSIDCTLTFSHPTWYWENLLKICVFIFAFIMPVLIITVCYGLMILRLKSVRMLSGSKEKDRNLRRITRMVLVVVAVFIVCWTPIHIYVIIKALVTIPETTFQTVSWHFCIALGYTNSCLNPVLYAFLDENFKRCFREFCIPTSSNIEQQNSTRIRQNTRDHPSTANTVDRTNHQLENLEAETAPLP

[2] = Parallel artificial membrane permeability assay; assay type: in vitro ADME; conditions: 4 h; for PAMPA pH 5.5, percent transported: pH 5.5, 10 μM; for PAMPA pH 7.4, percent transported: pH 7.4, 10 μM
κ opioid receptor [3] = target: T2, κ opioid receptor (Homo sapiens, UniProt P41145); conditions: for δ/κ: selectivity for κ relative to δ; for δ/κ / μ/κ: ratio of Ke values; for μ/κ: selectivity for κ relative to μ; for Ke κ, U69,593: cloned human κ receptor, mean (SE), at least three independent experiments
T2 sequence (P41145 whole entry): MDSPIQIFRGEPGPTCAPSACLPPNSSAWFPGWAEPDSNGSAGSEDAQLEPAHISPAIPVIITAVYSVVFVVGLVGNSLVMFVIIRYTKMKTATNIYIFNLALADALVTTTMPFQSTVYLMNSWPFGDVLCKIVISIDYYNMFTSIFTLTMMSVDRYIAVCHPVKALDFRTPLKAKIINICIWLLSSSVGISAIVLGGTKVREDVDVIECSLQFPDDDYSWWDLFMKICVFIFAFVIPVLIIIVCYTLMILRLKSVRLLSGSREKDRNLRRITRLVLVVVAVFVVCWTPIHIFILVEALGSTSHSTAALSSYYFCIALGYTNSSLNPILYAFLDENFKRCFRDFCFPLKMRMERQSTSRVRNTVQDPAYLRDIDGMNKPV

κ opioid receptor [4] = target: T2, κ opioid receptor; test: biochemical
δ opioid receptor [5] = target: T3, δ opioid receptor (Homo sapiens, UniProt P41143); test: biochemical
T3 sequence (P41143 whole entry): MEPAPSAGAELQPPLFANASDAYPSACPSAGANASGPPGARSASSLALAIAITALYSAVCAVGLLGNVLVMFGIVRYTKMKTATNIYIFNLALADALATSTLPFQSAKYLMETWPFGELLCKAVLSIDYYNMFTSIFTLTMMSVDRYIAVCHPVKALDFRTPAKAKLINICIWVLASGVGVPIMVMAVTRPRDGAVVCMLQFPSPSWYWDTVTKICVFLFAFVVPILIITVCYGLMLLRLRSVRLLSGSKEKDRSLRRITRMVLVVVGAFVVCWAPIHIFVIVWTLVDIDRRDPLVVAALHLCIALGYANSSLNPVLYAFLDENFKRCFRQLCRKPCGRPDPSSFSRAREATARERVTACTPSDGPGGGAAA

[6] = Kinetic solubility, 96-well plate assay; assay type: physicochemical; conditions: for solubility at 90 min: phosphate buffer
δ opioid receptor [7] = conditions: read-out: Ki δ; cited from earlier work
δ opioid receptor [8] = target: T3, δ opioid receptor; conditions: for behaviour at the δ receptor: δ opioid receptor [35S]GTPγS assay, result in words; for Ke δ, DPDPE: cloned human δ receptor
μ opioid receptor [9] = target: T1, μ opioid receptor; conditions: cloned human μ receptor; mean (SE), at least three independent experiments
[10] = mean (SE), at least three independent experiments

| Compound | S9 stability (% of parent) (S9 stability) | plasma stability (% of parent) (Plasma stability) | MDCK, percent transported (MDCK-MDR1 cells) [%] | δ/κ (κ opioid receptor [3]) | μ/κ (κ opioid receptor [3]) | Ke κ, U69,593 (κ opioid receptor [3]) | Ke μ, DAMGO (μ opioid receptor [9]) | Ke δ, DPDPE (δ opioid receptor [8]; [10]) | also measured |
| --- | --- | --- | --- | --- | --- | --- | --- | --- | --- |
| CC(C)[C@@H](CN1CC[C@@](C)(c2ccccc2)[C@@H](C)C1)NC(=O)[C@H]1Cc2ccc(O)cc2CN1 [Compound 4, (3R)-N-[(1S)-1-{[(3R,4R)-3,4-Dimethyl-4-phenylpiperidin-1-yl]methyl}-2-methylpropyl]-7-hydroxy-1,2,3,4-tetrahydroisoquinoline-3-carboxamide] | 82.0 % of parent | 67.0 % of parent | 27 | – | – | – | – | – | – |
| CC(C)[C@@H](CN1CC[C@@](C)(c2cccc(O)c2)[C@@H](C)C1)NC(=O)[C@H]1Cc2ccc(C(N)=O)cc2CN1 [Compound 13, (3R)-N^3-[(1S)-1-{[(3R,4R)-4-(3-Hydroxyphenyl)-3,4-dimethylpiperidin-1-yl]methyl}-2-methylpropyl]-1,2,3,4-tetrahydroisoquinoline-3,7-dicarboxamide] | 91.5 % of parent | 84.7 % of parent | 17 | 6550 | 355 | – | – | – | Ki (hERG channel): > 10000 nM; Kb (μ opioid receptor [1]): 7.09 ± 2.58 nM; PAMPA pH 5.5, percent transported [2]: 39.1%; PAMPA pH 7.4, percent transported [2]: 28.3%; Kb (κ opioid receptor [4]): 0.02 ± 0.005 nM; Kb (δ opioid receptor [5]): 131 ± 23 nM; solubility at pH 7.4 ([6]; pH 7.4): > 20%; solubility at 90 min ([6]; pH 3): 77 µM (≈ 37.9 µg/mL); solubility at 90 min ([6]; pH 7.4): 38 µM (≈ 18.7 µg/mL) |
| CC(C)[C@@H](CN1CC[C@@](C)(c2cccc(C(N)=O)c2)[C@@H](C)C1)NC(=O)[C@H]1Cc2ccc(C(N)=O)cc2CN1 [Compound 14, (3R)-N^3-[(1S)-1-{[(3R,4R)-4-(3-Carbamoylphenyl)-3,4-dimethylpiperidin-1-yl]methyl}-2-methylpropyl]-1,2,3,4-tetrahydroisoquinoline-3,7-dicarboxamide] | 90.9 % of parent | 55.3 % of parent | 14 | 4700 | 230 | – | – | – | Ki (hERG channel): > 10000 nM; Kb (μ opioid receptor [1]): 25.3 ± 7.89 nM; PAMPA pH 5.5, percent transported [2]: 36.4%; PAMPA pH 7.4, percent transported [2]: 32.2%; Kb (κ opioid receptor [4]): 0.11 ± 0.02 nM; Kb (δ opioid receptor [5]): 517 ± 52 nM; solubility at pH 7.4 ([6]; pH 7.4): > 20%; solubility at 90 min ([6]; pH 3): 100 µM (≈ 52 µg/mL); solubility at 90 min ([6]; pH 7.4): 81 µM (≈ 42.1 µg/mL) |
| CC(C)[C@@H](CN1CC[C@@](C)(c2cccc(O)c2)[C@@H](C)C1)NC(=O)[C@H]1Cc2ccc(O)cc2CN1 [JDTic, (3R)-1,2,3,4-tetrahydro-7-hydroxy-N-[(1S)-1-[[(3R,4R)-4-(3-hydroxyphenyl)-3,4-dimethyl-1-piperidinyl]methyl]-2-methylpropyl]-3-isoquinolinecarboxamide, reference compound] | 76 % of parent | 97 % of parent | 11 | – | – | – | – | – | – |
| C[C@H]1CN(CC[C@H](O)C2CCCCC2)CC[C@@]1(C)c1cccc(O)c1 [LY255582] | – | – | – | – | – | – | – | – | Ki (δ opioid receptor [7]): 4.8 nM |
| (3R)-7-Fluoro-N-[(1S)-1-{[(3R,4R)-4-(3-Fluorophenyl)-3,4-dimethylpiperidin-1-yl]methyl}-2-methylpropyl]-1,2,3,4-tetrahydroisoquinoline-3-carboxamide [Compound 12] | – | – | – | – | 162 | 2.22 nM and 2.22 ± 0.47 nM | 360 ± 63 nM | – | behaviour at the δ receptor (δ opioid receptor [8]): weak inverse agonist |
| (3R)-7-Fluoro-N-[(1S)-1-{[(3R,4R)-4-(3-Hydroxyphenyl)-3,4-dimethylpiperidine-1-yl]methyl}-2-methylpropyl]-1,2,3,4-tetrahydroisoquinoline-3-carboxamide [Compound 10] | – | – | – | – | 3.5 | 2.20 ± 0.47 nM | 7.7 ± 0.9 nM | – | behaviour at the δ receptor (δ opioid receptor [8]): weak inverse agonist |
| (3R)-N-[(1S)-1-{[(3R,4R)-3,4-Dimethyl-4-phenylpiperidin-1-yl]methyl}-2-methylpropyl]-1,2,3,4-tetrahydroisoquinoline-3-carboxamide [Compound 11] | – | – | – | >188 | 45 | 16 ± 7 nM | 724 ± 146 nM | – | Ke δ, DPDPE (δ opioid receptor [8]): >3000 nM |
| (3R)-N-[(1S)-1-{[(3R,4R)-4-(3-Aminophenyl)-3,4-dimethylpiperidin-1-yl]methyl}-2-methylpropyl]-7-hydroxy-1,2,3,4-tetrahydroisoquinoline-3-carboxamide [Compound 8] | – | – | – | 7600 | 42 | 0.25 ± 0.09 nM | 10.6 nM and 10.6 ± 3.6 nM | 1899 ± 657 nM | – |
| (3R)-N-[(1S)-1-{[(3R,4R)-4-(3-Bromophenyl)-3,4-dimethylpiperidin-1-yl]methyl}-2-methylpropyl]-7-hydroxy-1,2,3,4-tetrahydroisoquinoline-3-carboxamide [Compound 7] | – | – | – | 2200 | 25 | 0.268 nM and 0.268 ± 0.01 nM | 6.56 ± 0.44 nM | 594 ± 160 nM | – |
| (3R)-N-[(1S)-1-{[(3R,4R)-4-(3-Chlorophenyl)-3,4-dimethylpiperidin-1-yl]methyl}-2-methylpropyl]-7-hydroxy-1,2,3,4-tetrahydroisoquinoline-3-carboxamide [Compound 6] | – | – | – | 17600 | 175 | 0.039 ± 0.001 nM | 6.81 ± 2.6 nM | 685 ± 99 nM | – |
| (3R)-N-[(1S)-1-{[(3R,4R)-4-(3-Hydroxyphenyl)-3,4-dimethylpiperidin-1-yl]methyl}-2-methylpropyl]-7-1,2,3,4-tetrahydroisoquinoline-3-carboxamide [Compound 9] | – | – | – | 37 | 3.7 | 4.3 ± 2 nM | 16 ± 5 nM | 158 nM and 158 ± 49 nM | – |
| (3R)-N^3-[(1S)-1-{[(3R,4R)-3,4-Dimethyl-4-phenylpiperidin-1-yl]methyl}-2-methylpropyl]-1,2,3,4-tetrahydroisoquinoline-3,7-dicarboxamide [Compound 15] | – | – | – | 2700 | 163 | 0.041 ± 0.006 nM | 6.70 ± 2.1 nM | 111 ± 29 nM | – |
